Experimental findings from ChEMBL document CHEMBL1255325, “Plasmid-mediated qepA gene among Escherichia coli clinical isolates from Japan” (2008) are described below.

Assay [1] has as its system Escherichia coli. Kind of assay: Antimicrobial activity against Escherichia coli MRY04-1060 expressing qepA gene by agar dilution CLSI method. In kind it is functional. For orientation: In agar dilution the substance is mixed into plates at graded concentrations.
Assay [2] relates to Escherichia coli. Kind of assay: Antimicrobial activity against Escherichia coli MRY05-3283 expressing qepA and rmtB gene by agar dilution CLSI method. The assay is classed as functional.
Assay [3] concerns Escherichia coli. Kind of assay: Antimicrobial activity against Escherichia coli DH10B harboring p041060 carrying qepA gene by agar dilution CLSI method. In kind it is functional.
Assay [4] has as its system Escherichia coli. The assay can be described thus: Antimicrobial activity against Escherichia coli DH10B harboring p05283 carrying qepA and rmtB gene by agar dilution CLSI method. The assay is classed as functional.
Assay [5] relates to Escherichia coli. The assay can be described thus: Antimicrobial activity against Escherichia coli isolate DH10B by agar dilution CLSI method.
The subject of assay [6] is Escherichia coli. The assay can be described thus: Ratio of MIC for Escherichia coli DH10B harboring p041060 carrying qepA gene to MIC for Escherichia coli isolate DH10B. In kind it is functional.
The subject of assay [7] is Escherichia coli. The assay can be described thus: Ratio of MIC for Escherichia coli DH10B harboring p05283 carrying qepA and rmtB gene to MIC for Escherichia coli isolate DH10B. The assay is classed as functional.

Converted amounts (≈) assume the structure as drawn. A value given as a limit tells only on which side of the number the result lay.

The MIC is the smallest concentration in the dilution series that meets the test's criterion for growth inhibition. The low end stands for greater potency, the high end for weaker potency. `NCC[C@H](O)C(=O)N[C@@H]1C[C@H](N)[C@@H](O[C@H]2O[C@H](CN)[C@@H](O)[C@H](O)[C@H]2O)[C@H](O)[C@H]1O[C@H]1O[C@H](CO)[C@@H](O)[C@H](N)[C@H]1O` [AMIKACIN]: the MIC in assay [1] was above 128 µg/mL; in assay [2], above 128 µg/mL; in assay [3], above 128 µg/mL; in assay [4] it was above 128 µg/mL; in assay [5], 2 µg/mL (≈ 3.42 µM).

Take `CO/N=C(\C(=O)N[C@@H]1C(=O)N2C(C(=O)O)=C(COC(C)=O)CS[C@H]12)c1csc(N)n1` [CEFOTAXIME]: the MIC came out at 0.13 µg/mL (≈ 0.285 µM) in assay [1]; 0.13 µg/mL (≈ 0.285 µM) in assay [2]; 0.06 µg/mL (≈ 0.132 µM) in assay [3]; 0.06 µg/mL (≈ 0.132 µM) in assay [4]; 0.06 µg/mL (≈ 0.132 µM) in assay [5].

Consider `CC(C)(O/N=C(\C(=O)N[C@@H]1C(=O)N2C(C(=O)[O-])=C(C[n+]3ccccc3)CS[C@H]12)c1csc(N)n1)C(=O)O` [CEFTAZIDIME], for which the minimal inhibitory concentration (MIC) in assay [1] is 0.5 µg/mL (≈ 0.915 µM); in assay [2], 0.5 µg/mL (≈ 0.915 µM); in assay [3], 0.5 µg/mL (≈ 0.915 µM); in assay [4], 0.5 µg/mL (≈ 0.915 µM); in assay [5], 0.25 µg/mL (≈ 0.457 µM).

As to `C[C@@H](O)[C@H]1C(=O)N2C(C(=O)O)=C(SCCNC=N)C[C@H]12` [IMIPENEM ANHYDROUS], the MIC in assay [1] came to 0.13 µg/mL (≈ 0.434 µM); in assay [2], 0.13 µg/mL (≈ 0.434 µM); in assay [5] it was 0.25 µg/mL (≈ 0.835 µM).

In the case of `C[C@H]1COc2c(N3CCN(C)CC3)c(F)cc3c(=O)c(C(=O)O)cn1c23.C[C@H]1COc2c(N3CCN(C)CC3)c(F)cc3c(=O)c(C(=O)O)cn1c23.O` [LEVOFLOXACIN], the figures for the MIC in assay [1], in assay [2] and in assay [5] were 64 µg/mL, 128 µg/mL and at most 0.008 µg/mL, respectively.

As for `CCn1cc(C(=O)O)c(=O)c2cc(F)c(N3CCNCC3)cc21` [NORFLOXACIN], the MIC in assay [1] was above 128 µg/mL; in assay [2] it was above 128 µg/mL; in assay [3] it was 0.25 µg/mL (≈ 0.783 µM); in assay [4], 0.25 µg/mL (≈ 0.783 µM); in assay [5], at most 0.008 µg/mL. Moreover, the Ratio in assay [6] and in assay [7] was 4 each time.

For the compound `NC[C@H]1O[C@H](O[C@H]2[C@H](O)[C@@H](O[C@H]3O[C@H](CO)[C@@H](O)[C@H](N)[C@H]3O)[C@H](N)C[C@@H]2N)[C@H](N)C[C@@H]1O` [TOBRAMYCIN], the MIC in assay [1] is above 128 µg/mL; in assay [2], above 128 µg/mL; in assay [3], above 128 µg/mL; in assay [4], above 128 µg/mL; in assay [5], 0.5 µg/mL (≈ 1.07 µM).

As to GENTAMICIN, the MIC in assay [1], in assay [2], in assay [3] and in assay [4] was above 128 µg/mL each time.
